Measured values reported in PMC8800111 (The Journal of Biological Chemistry, 2021).

Legend:
Assay type in all cases: cell-based
[1] = target: proteins of U3A human fibrosarcoma cells (4462 proteins detected) (Homo sapiens, UniProt P20700); conditions: protein LMNB1; soluble abundance after heat, U3A cells
[2] = target: proteins of U3A human fibrosarcoma cells (4462 proteins detected) (Homo sapiens, UniProt P61201); conditions: protein COPS2; U3A cells
[3] = target: proteins of U3A human fibrosarcoma cells (4462 proteins detected) (Homo sapiens, UniProt P48556); conditions: protein PSMD8; U3A cells
[4] = target: proteins of U3A human fibrosarcoma cells (4462 proteins detected) (Homo sapiens, UniProt P31949); conditions: protein S100A11, U3A cells
[5] = target: proteins of U3A human fibrosarcoma cells (4462 proteins detected) (Homo sapiens, UniProt Q92797); conditions: protein SYMPK; soluble abundance after heat, U3A cells
[6] = target: proteins of U3A human fibrosarcoma cells (4462 proteins detected) (Homo sapiens, UniProt P57768); conditions: protein SNX16; U3A, 10 μM, 2 h
[7] = target: proteins of U3A human fibrosarcoma cells (4462 proteins detected) (Homo sapiens, UniProt Q9Y6M5); conditions: protein SLC30A1; U3A cells
[8] = target: proteins of U3A human fibrosarcoma cells (4462 proteins detected) (Homo sapiens, UniProt Q9NU23); conditions: protein LYRM2; U3A, 10 μM, 2 h
[9] = target: proteins of U3A human fibrosarcoma cells (4462 proteins detected) (Homo sapiens, UniProt Q86V21); conditions: protein AACS, U3A cells
[10] = target: proteins of U3A human fibrosarcoma cells (4462 proteins detected) (Homo sapiens, UniProt P57772); conditions: protein EEFSEC, U3A cells
[11] = target: proteins of U3A human fibrosarcoma cells (4462 proteins detected) (Homo sapiens, UniProt P29353); conditions: protein SHC1; U3A cells
[12] = target: proteins of U3A human fibrosarcoma cells (4462 proteins detected) (Homo sapiens, UniProt Q96QG7); conditions: protein MTMR9; soluble abundance after heat, U3A cells
[13] = target: proteins of U3A human fibrosarcoma cells (4462 proteins detected) (Homo sapiens, UniProt Q99848); conditions: protein EBNA1BP2; U3A cells
[14] = target: proteins of U3A human fibrosarcoma cells (4462 proteins detected) (Homo sapiens, UniProt Q13627); conditions: protein DYRK1A, U3A cells
[15] = target: proteins of U3A human fibrosarcoma cells (4462 proteins detected) (Homo sapiens, UniProt O15400); conditions: protein STX7; U3A cells
[16] = target: proteins of U3A human fibrosarcoma cells (4462 proteins detected) (Homo sapiens, UniProt P11717); conditions: protein IGF2R; soluble abundance after heat, U3A cells
[17] = target: proteins of U3A human fibrosarcoma cells (4462 proteins detected) (Homo sapiens, UniProt P28482); conditions: protein MAPK1; soluble abundance after heat, U3A cells
[18] = target: proteins of U3A human fibrosarcoma cells (4462 proteins detected) (Homo sapiens, UniProt P04083); conditions: protein ANXA1, U3A cells
[19] = target: proteins of U3A human fibrosarcoma cells (4462 proteins detected) (Homo sapiens, UniProt Q9Y6G3); conditions: protein MRPL42; soluble abundance after heat, U3A cells
[20] = target: proteins of U3A human fibrosarcoma cells (4462 proteins detected) (Homo sapiens, UniProt Q9NR28); conditions: protein DIABLO; U3A cells
[21] = target: proteins of U3A human fibrosarcoma cells (4462 proteins detected) (Homo sapiens, UniProt Q9NZ52); conditions: protein GGA3; soluble abundance after heat, U3A cells
[22] = target: proteins of U3A human fibrosarcoma cells (4462 proteins detected) (Homo sapiens, UniProt Q16763); conditions: protein UBE2S; U3A, 10 μM, 2 h
[23] = target: proteins of U3A human fibrosarcoma cells (4462 proteins detected) (Homo sapiens, UniProt Q12931); conditions: protein TRAP1; U3A cells
[24] = target: proteins of U3A human fibrosarcoma cells (4462 proteins detected) (Homo sapiens, UniProt Q92572); conditions: protein AP3S1; U3A cells
[25] = target: proteins of U3A human fibrosarcoma cells (4462 proteins detected) (Homo sapiens, UniProt Q9NQZ2); conditions: protein UTP3; soluble abundance after heat, U3A cells
[26] = target: proteins of U3A human fibrosarcoma cells (4462 proteins detected) (Homo sapiens, UniProt Q9H3U1); conditions: protein UNC45A; U3A cells
[27] = target: proteins of U3A human fibrosarcoma cells (4462 proteins detected) (Homo sapiens, UniProt P27824); conditions: protein CANX; soluble abundance after heat, U3A cells
[28] = target: proteins of U3A human fibrosarcoma cells (4462 proteins detected) (Homo sapiens, UniProt P49458); conditions: protein SRP9, U3A cells
[29] = target: proteins of U3A human fibrosarcoma cells (4462 proteins detected) (Homo sapiens, UniProt Q53H96); conditions: protein PYCRL; U3A, 10 μM, 2 h
Chain of proteins of U3A human fibrosarcoma cells (4462 proteins detected) (Homo sapiens, UniProt Q53H96) (Q53H96 whole entry): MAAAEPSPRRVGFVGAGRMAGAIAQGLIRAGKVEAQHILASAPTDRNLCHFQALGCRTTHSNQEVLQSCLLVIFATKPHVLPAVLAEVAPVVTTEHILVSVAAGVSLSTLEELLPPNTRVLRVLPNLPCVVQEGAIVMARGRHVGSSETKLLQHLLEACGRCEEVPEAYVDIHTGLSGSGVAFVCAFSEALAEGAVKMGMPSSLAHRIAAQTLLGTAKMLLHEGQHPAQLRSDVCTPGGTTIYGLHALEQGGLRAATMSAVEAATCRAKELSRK

Chain of proteins of U3A human fibrosarcoma cells (4462 proteins detected) (Homo sapiens, UniProt O15400) (O15400 whole entry): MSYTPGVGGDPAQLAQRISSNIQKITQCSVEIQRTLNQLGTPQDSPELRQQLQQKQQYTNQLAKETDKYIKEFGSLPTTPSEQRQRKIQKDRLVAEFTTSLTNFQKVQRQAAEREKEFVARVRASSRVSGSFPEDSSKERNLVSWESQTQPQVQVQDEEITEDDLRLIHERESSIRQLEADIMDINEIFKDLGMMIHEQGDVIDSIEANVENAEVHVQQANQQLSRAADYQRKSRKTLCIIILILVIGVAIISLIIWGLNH
Chain of proteins of U3A human fibrosarcoma cells (4462 proteins detected) (Homo sapiens, UniProt P29353) (P29353 whole entry): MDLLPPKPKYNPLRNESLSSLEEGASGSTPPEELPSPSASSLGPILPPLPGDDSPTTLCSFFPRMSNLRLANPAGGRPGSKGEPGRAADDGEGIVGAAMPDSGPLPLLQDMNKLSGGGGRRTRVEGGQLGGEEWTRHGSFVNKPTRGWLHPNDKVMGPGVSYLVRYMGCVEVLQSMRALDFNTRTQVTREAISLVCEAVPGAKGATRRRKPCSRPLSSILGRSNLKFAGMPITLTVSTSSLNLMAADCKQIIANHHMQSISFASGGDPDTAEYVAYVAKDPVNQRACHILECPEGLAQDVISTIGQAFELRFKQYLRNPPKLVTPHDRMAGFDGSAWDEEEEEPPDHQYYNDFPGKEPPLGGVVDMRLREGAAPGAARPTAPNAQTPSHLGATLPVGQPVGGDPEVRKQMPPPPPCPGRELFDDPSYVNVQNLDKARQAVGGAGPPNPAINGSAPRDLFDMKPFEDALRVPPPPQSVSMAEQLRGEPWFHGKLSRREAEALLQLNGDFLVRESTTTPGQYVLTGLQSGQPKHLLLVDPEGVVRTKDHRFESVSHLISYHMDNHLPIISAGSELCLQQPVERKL
Chain of proteins of U3A human fibrosarcoma cells (4462 proteins detected) (Homo sapiens, UniProt P49458) (P49458 whole entry): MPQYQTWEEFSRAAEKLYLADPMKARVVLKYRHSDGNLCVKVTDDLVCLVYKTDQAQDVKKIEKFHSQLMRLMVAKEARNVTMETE
Chain of proteins of U3A human fibrosarcoma cells (4462 proteins detected) (Homo sapiens, UniProt Q9NU23) (Q9NU23 20-88): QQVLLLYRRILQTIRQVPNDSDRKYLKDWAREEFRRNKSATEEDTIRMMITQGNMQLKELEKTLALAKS
Chain of proteins of U3A human fibrosarcoma cells (4462 proteins detected) (Homo sapiens, UniProt Q9NR28) (Q9NR28 22-239): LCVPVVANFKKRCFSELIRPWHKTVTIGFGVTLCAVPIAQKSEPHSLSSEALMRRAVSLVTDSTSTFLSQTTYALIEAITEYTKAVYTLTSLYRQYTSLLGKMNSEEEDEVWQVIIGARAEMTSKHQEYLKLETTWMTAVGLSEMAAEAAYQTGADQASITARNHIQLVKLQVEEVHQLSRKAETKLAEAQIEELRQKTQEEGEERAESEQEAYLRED
Chain of proteins of U3A human fibrosarcoma cells (4462 proteins detected) (Homo sapiens, UniProt P61201) (P61201 whole entry): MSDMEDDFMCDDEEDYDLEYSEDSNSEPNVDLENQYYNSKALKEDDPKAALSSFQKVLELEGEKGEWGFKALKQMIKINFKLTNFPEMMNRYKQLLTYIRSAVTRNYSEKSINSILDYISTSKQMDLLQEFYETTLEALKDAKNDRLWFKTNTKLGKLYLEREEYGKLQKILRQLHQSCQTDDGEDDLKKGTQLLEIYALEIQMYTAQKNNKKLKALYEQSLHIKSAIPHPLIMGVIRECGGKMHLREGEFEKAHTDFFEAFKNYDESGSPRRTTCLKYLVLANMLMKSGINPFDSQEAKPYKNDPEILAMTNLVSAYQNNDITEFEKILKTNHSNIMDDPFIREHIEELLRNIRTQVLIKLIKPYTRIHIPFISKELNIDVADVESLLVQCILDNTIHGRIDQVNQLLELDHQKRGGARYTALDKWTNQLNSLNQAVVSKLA
Chain of proteins of U3A human fibrosarcoma cells (4462 proteins detected) (Homo sapiens, UniProt P31949) (P31949 whole entry): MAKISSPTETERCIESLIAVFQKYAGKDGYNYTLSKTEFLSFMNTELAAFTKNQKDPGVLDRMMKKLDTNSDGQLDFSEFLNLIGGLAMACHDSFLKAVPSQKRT
Chain of proteins of U3A human fibrosarcoma cells (4462 proteins detected) (Homo sapiens, UniProt P20700) (P20700 whole entry): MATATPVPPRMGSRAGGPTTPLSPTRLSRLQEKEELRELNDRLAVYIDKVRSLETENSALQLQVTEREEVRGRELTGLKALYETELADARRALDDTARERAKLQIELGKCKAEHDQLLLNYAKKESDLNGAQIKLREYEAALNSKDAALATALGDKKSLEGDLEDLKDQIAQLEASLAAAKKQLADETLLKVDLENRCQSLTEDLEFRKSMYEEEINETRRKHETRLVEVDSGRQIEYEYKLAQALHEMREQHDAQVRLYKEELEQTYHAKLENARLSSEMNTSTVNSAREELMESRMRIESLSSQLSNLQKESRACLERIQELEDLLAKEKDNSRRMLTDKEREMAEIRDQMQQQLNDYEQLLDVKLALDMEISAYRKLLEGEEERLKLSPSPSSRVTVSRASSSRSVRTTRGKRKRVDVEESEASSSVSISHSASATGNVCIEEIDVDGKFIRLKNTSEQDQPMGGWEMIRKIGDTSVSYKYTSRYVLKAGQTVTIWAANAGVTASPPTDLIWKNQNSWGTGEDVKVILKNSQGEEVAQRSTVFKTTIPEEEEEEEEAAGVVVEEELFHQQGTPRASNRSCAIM
Chain of proteins of U3A human fibrosarcoma cells (4462 proteins detected) (Homo sapiens, UniProt P28482) (P28482 whole entry): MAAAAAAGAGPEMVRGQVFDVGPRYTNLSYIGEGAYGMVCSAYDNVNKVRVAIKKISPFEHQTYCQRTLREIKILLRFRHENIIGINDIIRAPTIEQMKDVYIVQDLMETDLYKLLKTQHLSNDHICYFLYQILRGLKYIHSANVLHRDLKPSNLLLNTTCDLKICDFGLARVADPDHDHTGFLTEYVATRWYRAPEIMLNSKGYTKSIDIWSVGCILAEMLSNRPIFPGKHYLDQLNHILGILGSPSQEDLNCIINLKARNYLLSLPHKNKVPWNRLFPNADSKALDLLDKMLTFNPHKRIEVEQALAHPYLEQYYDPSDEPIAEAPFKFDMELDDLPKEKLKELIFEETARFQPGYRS
Chain of proteins of U3A human fibrosarcoma cells (4462 proteins detected) (Homo sapiens, UniProt Q9H3U1) (Q9H3U1 whole entry): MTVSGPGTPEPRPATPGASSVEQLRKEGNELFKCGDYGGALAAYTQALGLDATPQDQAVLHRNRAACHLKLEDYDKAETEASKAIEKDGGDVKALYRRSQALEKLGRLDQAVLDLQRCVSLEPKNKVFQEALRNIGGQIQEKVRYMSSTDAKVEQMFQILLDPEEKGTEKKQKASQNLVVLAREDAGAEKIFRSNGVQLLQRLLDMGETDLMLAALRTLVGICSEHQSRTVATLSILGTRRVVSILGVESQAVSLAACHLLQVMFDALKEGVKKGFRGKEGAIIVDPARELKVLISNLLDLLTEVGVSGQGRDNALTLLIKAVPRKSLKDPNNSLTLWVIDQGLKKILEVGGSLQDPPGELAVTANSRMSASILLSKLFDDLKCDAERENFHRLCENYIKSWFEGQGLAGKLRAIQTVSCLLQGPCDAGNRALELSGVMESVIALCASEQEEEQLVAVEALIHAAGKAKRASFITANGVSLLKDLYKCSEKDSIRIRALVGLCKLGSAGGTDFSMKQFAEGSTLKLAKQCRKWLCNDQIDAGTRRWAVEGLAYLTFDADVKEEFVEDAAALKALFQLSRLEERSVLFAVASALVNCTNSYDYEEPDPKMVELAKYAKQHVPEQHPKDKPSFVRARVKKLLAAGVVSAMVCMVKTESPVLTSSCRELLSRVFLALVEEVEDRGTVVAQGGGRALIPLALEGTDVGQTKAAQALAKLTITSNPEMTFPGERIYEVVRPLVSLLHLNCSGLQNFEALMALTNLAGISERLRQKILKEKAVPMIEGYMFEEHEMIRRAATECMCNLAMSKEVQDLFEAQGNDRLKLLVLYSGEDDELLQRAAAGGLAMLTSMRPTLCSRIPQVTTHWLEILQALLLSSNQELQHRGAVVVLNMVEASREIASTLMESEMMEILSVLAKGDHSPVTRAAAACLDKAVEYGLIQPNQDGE
Chain of proteins of U3A human fibrosarcoma cells (4462 proteins detected) (Homo sapiens, UniProt Q9NZ52) (Q9NZ52 whole entry): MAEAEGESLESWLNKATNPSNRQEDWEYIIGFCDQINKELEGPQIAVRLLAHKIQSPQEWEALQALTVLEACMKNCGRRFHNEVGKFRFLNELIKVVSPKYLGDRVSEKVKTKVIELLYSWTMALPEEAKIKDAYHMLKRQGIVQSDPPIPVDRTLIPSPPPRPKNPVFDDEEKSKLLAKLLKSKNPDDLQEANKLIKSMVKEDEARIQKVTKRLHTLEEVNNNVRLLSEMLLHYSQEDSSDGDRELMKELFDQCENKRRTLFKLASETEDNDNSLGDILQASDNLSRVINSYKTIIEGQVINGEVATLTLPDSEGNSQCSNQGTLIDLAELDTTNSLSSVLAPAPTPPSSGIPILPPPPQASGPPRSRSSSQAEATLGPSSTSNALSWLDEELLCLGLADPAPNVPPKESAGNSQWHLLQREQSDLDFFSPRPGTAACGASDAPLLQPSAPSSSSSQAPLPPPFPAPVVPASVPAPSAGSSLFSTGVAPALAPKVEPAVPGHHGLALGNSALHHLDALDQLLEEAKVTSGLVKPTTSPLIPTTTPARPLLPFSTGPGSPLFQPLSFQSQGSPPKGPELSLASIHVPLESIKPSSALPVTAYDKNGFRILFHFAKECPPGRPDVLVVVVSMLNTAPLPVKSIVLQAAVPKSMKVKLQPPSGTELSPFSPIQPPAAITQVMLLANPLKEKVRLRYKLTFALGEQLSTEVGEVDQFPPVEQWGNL
Chain of proteins of U3A human fibrosarcoma cells (4462 proteins detected) (Homo sapiens, UniProt Q16763) (Q16763 whole entry): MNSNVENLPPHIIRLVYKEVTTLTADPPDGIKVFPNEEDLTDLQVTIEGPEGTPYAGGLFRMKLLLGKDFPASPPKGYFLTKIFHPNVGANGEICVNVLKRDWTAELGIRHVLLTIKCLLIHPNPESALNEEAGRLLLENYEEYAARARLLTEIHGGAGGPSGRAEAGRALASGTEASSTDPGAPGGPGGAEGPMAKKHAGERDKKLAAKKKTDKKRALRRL

`CCc1nc(N)nc(N)c1-c1ccc(Cl)cc1` [pyrimethamine] was tested, and the “Log2 (PYR/DMSO)” value [1] was 0.15, the “Log2 (PYR/DMSO)” value [2] was 0.21 and the “Log2 (PYR/DMSO)” value [3] was 0.17. The “Log2 (PYR/DMSO)” value [4] was -0.04, the “Log2 (PYR/DMSO)” value [5] was 0.15 and the “Log2 (PYR/DMSO), SNX16” value [6] was -0.18. The “Log2 (PYR/DMSO)” value [7] was 0.16, the “Log2 (PYR/DMSO), LYRM2” value [8] was 0.27 and the “Log2 (PYR/DMSO)” value [9] was -0.04. The “Log2 (PYR/DMSO)” value [10] was -0.04, the “Log2 (PYR/DMSO)” value [11] was 0.19 and the “Log2 (PYR/DMSO)” value [12] was 0.15. The “Log2 (PYR/DMSO)” value [13] was 0.21, the “Log2 (PYR/DMSO)” value [14] was -0.05 and the “Log2 (PYR/DMSO)” value [15] was 0.18. For the same compound, the “Log2 (PYR/DMSO)” value [16] was 0.15, the “Log2 (PYR/DMSO)” value [17] was 0.15 and the “Log2 (PYR/DMSO)” value [18] was -0.05. For the same compound, the “Log2 (PYR/DMSO)” value [19] was 0.14, the “Log2 (PYR/DMSO)” value [20] was 0.16 and the “Log2 (PYR/DMSO)” value [21] was 0.14. For the same compound, the “Log2 (PYR/DMSO), UBE2S” value [22] was 0.25, the “Log2 (PYR/DMSO)” value [23] was 0.21 and the “Log2 (PYR/DMSO)” value [24] was 0.18. The “Log2 (PYR/DMSO)” value [25] was 0.15, the “Log2 (PYR/DMSO)” value [26] was 0.21 and the “Log2 (PYR/DMSO)” value [27] was 0.14. For the same compound, the “Log2 (PYR/DMSO)” value [28] was -0.05 and the “Log2 (PYR/DMSO), PYCRL” value [29] was -0.15.
